Measured values reported in PMC6150172, “Synthesis of Oxadiazole-Thiadiazole Hybrids and Their Anticandidal Activity” (Molecules : A Journal of Synthetic Chemistry and Natural …, 2017).
≈ marks a conversion by molar mass, not a printed value.

Tests used:
[1] = system: C. parapsilosis (ATCC 22019); assay: Antifungal broth microdilution assay (EUCAST EDef 7.1), C. parapsilosis; assay type: cell-based; details: C. parapsilopsis; for MIC50: Lodderomyces parapsilosis, ATCC22019, read-out: Minimum inhibitory concentration (MIC50)
Method: (§1) The anticandidal effect of compounds 6a–6s were screened in accord with the EUCAST definitive (EDef 7.1) method. Ketoconazole was employed as a reference drug. The in vitro growth inhibitory activity of the compounds were tested against C. albicans (ATCC 24433), C. glabrata (ATCC 90030), C. krusei (ATCC 6258) and C. parapsilosis (ATCC 22019). The results were obtained as MIC values and MIC readings were accomplished twice for each chemical agent. After incubating overnight at 37 °C, the fungal strains were sustained in Roswell Park Memorial Institute (RPMI) medium.
(§2) Adjustment of the inoculum density to a 0.5 McFarland turbidity standard was carried out by using a spectrophotometer. The resulting inoculum suspension contained 0.5 × 10^5–2.5 × 10^5 cfu/mL for fungi. The two-fold serial dilutions technique were applied and the test was carried out in Mueller–Hinton broth and RPMI at pH7 and the test was performed for medium at pH7. The last well on the microplates containing only inoculated broth and the last well with no growth of microorganism represent controls and the MIC50 in μg/mL, respectively. DMSO was used as solvent. Further dilutions of the compounds and standard drugs in the RPMI medium were prepared in the required quantities at contcentrations of 800, 400, 200, 100, 50, 25, 12.5, 6.25, 3.125, 1.5625 and 0.78 µg/mL. After a 24 h incubation of the completed plates, resazurin (20 µg/mL) was added into each well in order to observe the fungal growth. […] Each experiment in antifungal assay was performed twice.

C. glabrata (ATCC 90030) = assay: Antifungal broth microdilution assay (EUCAST EDef 7.1), C. glabrata; assay type: cell-based; details: for MIC50: Nakaseomyces glabratus, ATCC90030, read-out: Minimum inhibitory concentration (MIC50)
Method: as §1, §2

C. albicans (ATCC 24433) = assay: Antifungal broth microdilution assay (EUCAST EDef 7.1), C. albicans; assay type: cell-based; details: for MIC50: Candida albicans, ATCC24433, read-out: Minimum inhibitory concentration (MIC50)
Method: as §1, §2

C. krusei (ATCC 6258) = assay: Antifungal broth microdilution assay (EUCAST EDef 7.1), C. krusei; assay type: cell-based; details: for MIC50: Pichia kudriavzevii, ATCC6258, read-out: Minimum inhibitory concentration (MIC50)
Method: as §1, §2

four Candida species = assay: Antifungal broth microdilution assay, four Candida species taken together; assay type: cell-based; details: range over four Candida strains
Method: as §1, §2

MTT cytotoxicity test = assay type: cell-based; details: mouse, NIH/3T3 mouse embryonic fibroblast cells, NIH/3T3 cell line, read-out: IC50 (cytotoxic activity)
Method: The MTT assay was carried out to determine the cytotoxicity of the synthesized compounds as previously reported in [21]. NIH/3T3 mouse embryonic fibroblast cells (ATCC® CRL-1658™, London, UK) were incubated according to the supplier’s references and seeded at 1 × 10^4 cells into each well of 96-well plates. After this process, cells were treated with the compounds at concentrations ranging from 800 µg/mL to 0.78 µg/mL. By means of the following formula, percent inhibition was evaluated for each concentration.

[2] = system: ergosterol biosynthesis in C. krusei; assay: Ergosterol level quantification by LC-MS-MS in C. krusei; assay type: cell-based; details: Pichia kudriavzevii, mean ± SD
Method: The ergosterol level was determined using the method described by Breivik and Owades with adjustments according to [2]. C. krusei was inoculated with Sabouraud dextrose broth (Difco) supplemented with compounds 6e, 6k, 6r and the positive control, ketoconazole. The cultures were incubated, and the stationary-phase cells were harvested. After the addition of 25% alcoholic potassium hydroxide solution, cell suspensions were separated and incubated. Sterols were extracted by sterile distilled water and chloroform, and then the extract was injected into the LC-MS-MS system (Shimadzu LCMS 8040, Kyoto, Japan). The ergosterol quantity in the negative control samples was considered as 100%. All concentrations were analysed in quadruplicate, and the results were presented as mean ± standard deviation (SD).

Structure (SMILES)	MIC50 [1] [µg/mL]	MIC50 (C. glabrata (ATCC 90030)) [µg/mL]	MIC50 (C. albicans (ATCC 24433)) [µg/mL]	melting point [°C]	MIC50 (C. krusei (ATCC 6258)) [µg/mL]	minimum inhibitory concentration (MIC), range over all tested fungi (four Candida species) [µg/mL]	Minimum inhibitory concentration (MIC50) [1] [µg/mL]	Minimum inhibitory concentration (MIC50) (C. glabrata (ATCC 90030)) [µg/mL]	Minimum inhibitory concentration (MIC50) (C. albicans (ATCC 24433)) [µg/mL]	Minimum inhibitory concentration (MIC50) (C. krusei (ATCC 6258)) [µg/mL]	IC50 (MTT cytotoxicity test) [µg/mL]	inhibition at 0.78 µg/mL [2] [%]	inhibition at 1.56 µg/mL [2] [%]	inhibition at 3.12 µg/mL [2] [%]
O=C(CSc1nnc(CCSc2nnc(NC3CCCCC3)s2)o1)Nc1ccccc1 [Compound 6g, 2-[[5-[2-[[5-(Cyclohexylamino)-1,3,4-thiadiazol-2-yl]thio]ethyl]-1,3,4-oxadiazol-2-yl]thio]-N-phenyl acetamide]	–	–	–	–	–	–	50 (≈ 105 µM)	50 (≈ 105 µM)	50 (≈ 105 µM)	50 (≈ 105 µM)	–	–	–	–
CC(=O)N1CCN(c2ccc(OCC3COC(Cn4ccnc4)(c4ccc(Cl)cc4Cl)O3)cc2)CC1 (stereo not shown) [Ketoconazole, reference compound]	1.56 (≈ 2.94 µM)	1.56 (≈ 2.94 µM)	0.78 (≈ 1.47 µM)	–	1.56 (≈ 2.94 µM)	–	–	–	–	–	–	61 ± 2.94	73.1 ± 4.16	84.6 ± 3.01
O=C(CSc1nnc(CCSc2nnc(NC3CCCCC3)s2)o1)Nc1ccc(Cl)cc1 [Compound 6j, 2-[[5-[2-[[5-(Cyclohexylamino)-1,3,4-thiadiazol-2-yl]thio]ethyl]-1,3,4-oxadiazol-2-yl]thio]-N-(4-chlorophenyl)acetamide]	50 (≈ 97.8 µM)	50 (≈ 97.8 µM)	25 (≈ 48.9 µM)	–	50 (≈ 97.8 µM)	–	–	–	–	–	–	–	–	–
COc1ccc(C(=O)CSc2nnc(CCSc3nnc(NC4CCCCC4)s3)o2)cc1 [Compound 6c, 2-[[5-[2-[[5-(Cyclohexylamino)-1,3,4-thiadiazol-2-yl]thio]ethyl]-1,3,4-oxadiazol-2-yl]thio]-1-(4-methoxyphenyl)ethan-1-one]	50 (≈ 102 µM)	25 (≈ 50.8 µM)	100 (≈ 203 µM)	120	100 (≈ 203 µM)	–	–	–	–	–	–	–	–	–
Cc1ccc2nc(NC(=O)CSc3nnc(CCSc4nnc(NC5CCCCC5)s4)o3)sc2c1 [Compound 6n, 2-[[5-[2-[[5-(Cyclohexylamino)-1,3,4-thiadiazol-2-yl]thio]ethyl]-1,3,4-oxadiazol-2-yl]thio]-N-(6-methylbenzothiazol-2-yl)acetamide]	25 (≈ 45.6 µM)	25 (≈ 45.6 µM)	100 (≈ 183 µM)	209	50 (≈ 91.3 µM)	–	–	–	–	–	–	–	–	–
COc1ccc2nc(NC(=O)CSc3nnc(CCSc4nnc(NC5CCCCC5)s4)o3)sc2c1 [Compound 6o, 2-[[5-[2-[[5-(Cyclohexylamino)-1,3,4-thiadiazol-2-yl]thio]ethyl]-1,3,4-oxadiazol-2-yl]thio]-N-(6-methoxybenzothiazol-2-yl)acetamide]	50 (≈ 88.7 µM)	25 (≈ 44.3 µM)	100 (≈ 177 µM)	–	25 (≈ 44.3 µM)	–	–	–	–	–	–	–	–	–
O=C(CSc1nnc(CCSc2nnc(NC3CCCCC3)s2)o1)Nc1nc2ccccc2s1 [Compound 6m, 2-[[5-[2-[[5-(Cyclohexylamino)-1,3,4-thiadiazol-2-yl]thio]ethyl]-1,3,4-oxadiazol-2-yl]thio]-N-(benzothiazol-2-yl)acetamide]	25 (≈ 46.8 µM)	50 (≈ 93.7 µM)	50 (≈ 93.7 µM)	214	50 (≈ 93.7 µM)	–	–	–	–	–	–	–	–	–
O=C(CSc1nnc(CCSc2nnc(NC3CCCCC3)s2)o1)c1ccc(F)cc1 [Compound 6f, 2-[[5-[2-[[5-(Cyclohexylamino)-1,3,4-thiadiazol-2-yl]thio]ethyl]-1,3,4-oxadiazol-2-yl]thio]-1-(4-fluorophenyl)ethan-1-one]	50 (≈ 104 µM)	50 (≈ 104 µM)	50 (≈ 104 µM)	131	25 (≈ 52.1 µM)	–	–	–	–	–	–	–	–	–

Further molecules by falling MIC50 [1], results first:

MIC50 [1] [µg/mL]	MIC50 (C. glabrata (ATCC 90030)) [µg/mL]	MIC50 (C. albicans (ATCC 24433)) [µg/mL]	melting point [°C]	MIC50 (C. krusei (ATCC 6258)) [µg/mL]	minimum inhibitory concentration (MIC), range over all tested fungi (four Candida species) [µg/mL]	Minimum inhibitory concentration (MIC50) [1] [µg/mL]	Minimum inhibitory concentration (MIC50) (C. glabrata (ATCC 90030)) [µg/mL]	Minimum inhibitory concentration (MIC50) (C. albicans (ATCC 24433)) [µg/mL]	Minimum inhibitory concentration (MIC50) (C. krusei (ATCC 6258)) [µg/mL]	Structure (SMILES)	IC50 (MTT cytotoxicity test) [µg/mL]	inhibition at 0.78 µg/mL [2] [%]	inhibition at 1.56 µg/mL [2] [%]	inhibition at 3.12 µg/mL [2] [%]
50 (≈ 88 µM)	25 (≈ 44 µM)	50 (≈ 88 µM)	213	25 (≈ 44 µM)	–	–	–	–	–	O=C(CSc1nnc(CCSc2nnc(NC3CCCCC3)s2)o1)Nc1nc2ccc(Cl)cc2s1 [Compound 6p, 2-[[5-[2-[[5-(Cyclohexylamino)-1,3,4-thiadiazol-2-yl]thio]ethyl]-1,3,4-oxadiazol-2-yl]thio]-N-(6-chlorobenzothiazol-2-yl)acetamide]	–	–	–	–
50 (≈ 101 µM)	25 (≈ 50.4 µM)	100 (≈ 202 µM)	167	50 (≈ 101 µM)	–	–	–	–	–	O=C(CSc1nnc(CCSc2nnc(NC3CCCCC3)s2)o1)c1ccc(Cl)cc1 [Compound 6d, 2-[[5-[2-[[5-(Cyclohexylamino)-1,3,4-thiadiazol-2-yl]thio]ethyl]-1,3,4-oxadiazol-2-yl]thio]-1-(4-chlorophenyl)ethan-1-one]	–	–	–	–
50 (≈ 102 µM)	100 (≈ 204 µM)	25 (≈ 50.9 µM)	–	100 (≈ 204 µM)	–	–	–	–	–	Cc1ccc(NC(=O)CSc2nnc(CCSc3nnc(NC4CCCCC4)s3)o2)cc1 [Compound 6h, 2-[[5-[2-[[5-(Cyclohexylamino)-1,3,4-thiadiazol-2-yl]thio]ethyl]-1,3,4-oxadiazol-2-yl]thio]-N-(4-methylphenyl)acetamide]	–	–	–	–
50 (≈ 108 µM)	50 (≈ 108 µM)	25 (≈ 54.2 µM)	141	50 (≈ 108 µM)	–	–	–	–	–	O=C(CSc1nnc(CCSc2nnc(NC3CCCCC3)s2)o1)c1ccccc1 [Compound 6a, 2-[[5-[2-[[5-(Cyclohexylamino)-1,3,4-thiadiazol-2-yl]thio]ethyl]-1,3,4-oxadiazol-2-yl]thio]-1-phenylethan-1-one]	–	–	–	–
50 (≈ 90.6 µM)	6.25 (≈ 11.3 µM)	50 (≈ 90.6 µM)	–	50 (≈ 90.6 µM)	–	–	–	–	–	O=C(CSc1nnc(CCSc2nnc(NC3CCCCC3)s2)o1)Nc1nc2ccc(F)cc2s1 [Compound 6s, 2-[[5-[2-[[5-(Cyclohexylamino)-1,3,4-thiadiazol-2-yl]thio]ethyl]-1,3,4-oxadiazol-2-yl]thio]-N-(6-fluorobenzothiazol-2-yl)acetamide]	–	–	–	–
50 (≈ 105 µM)	50 (≈ 105 µM)	50 (≈ 105 µM)	136	100 (≈ 210 µM)	–	–	–	–	–	Cc1ccc(C(=O)CSc2nnc(CCSc3nnc(NC4CCCCC4)s3)o2)cc1 [Compound 6b, 2-[[5-[2-[[5-(Cyclohexylamino)-1,3,4-thiadiazol-2-yl]thio]ethyl]-1,3,4-oxadiazol-2-yl]thio]-1-(4-methylphenyl)ethan-1-one]	–	–	–	–
50 (≈ 98.7 µM)	100 (≈ 197 µM)	25 (≈ 49.3 µM)	–	100 (≈ 197 µM)	–	–	–	–	–	COc1ccc(NC(=O)CSc2nnc(CCSc3nnc(NC4CCCCC4)s3)o2)cc1 [Compound 6i, 2-[[5-[2-[[5-(Cyclohexylamino)-1,3,4-thiadiazol-2-yl]thio]ethyl]-1,3,4-oxadiazol-2-yl]thio]-N-(4-methoxyphenyl)acetamide]	–	–	–	–
25 (≈ 50.5 µM)	50 (≈ 101 µM)	100 (≈ 202 µM)	–	50 (≈ 101 µM)	–	–	–	–	–	O=C(CSc1nnc(CCSc2nnc(NC3CCCCC3)s2)o1)Nc1ccc(F)cc1 [Compound 6l, 2-[[5-[2-[[5-(Cyclohexylamino)-1,3,4-thiadiazol-2-yl]thio]ethyl]-1,3,4-oxadiazol-2-yl]thio]-N-(4-fluorophenyl)acetamide]	–	–	–	–
1.56 (≈ 2.7 µM)	3.12 (≈ 5.39 µM)	3.12 (≈ 5.39 µM)	–	1.56 (≈ 2.7 µM)	0.78 to 3.12	–	–	–	–	O=C(CSc1nnc(CCSc2nnc(NC3CCCCC3)s2)o1)Nc1nc2ccc([N+](=O)[O-])cc2s1 [Compound 6r, 2-[[5-[2-[[5-(Cyclohexylamino)-1,3,4-thiadiazol-2-yl]thio]ethyl]-1,3,4-oxadiazol-2-yl]thio]-N-(6-nitrobenzothiazol-2-yl)acetamide]	406 ± 9.36 (≈ 702 µM)	61.4 ± 1.88	70.6 ± 4.23	80.2 ± 3.7
0.78 (≈ 1.54 µM)	1.56 (≈ 3.08 µM)	1.56 (≈ 3.08 µM)	144	0.78 (≈ 1.54 µM)	0.78 to 3.12	–	–	–	–	O=C(CSc1nnc(CCSc2nnc(NC3CCCCC3)s2)o1)c1ccc([N+](=O)[O-])cc1 [Compound 6e, 2-[[5-[2-[[5-(Cyclohexylamino)-1,3,4-thiadiazol-2-yl]thio]ethyl]-1,3,4-oxadiazol-2-yl]thio]-1-(4-nitrophenyl)ethan-1-one]	> 500	76.5 ± 3.67	82.9 ± 4.72	88.6 ± 4.52
